One data set has as its system colon cancer cell lines. The note with it: cited from earlier work.
A further data set relates to HIV-1. The settings on record: cited from earlier work.
A further data set deals with leukaemia cell lines. The settings on record: cited from earlier work.
The subject of the next data set is TNF-α. Kind of data set: TNF-α release by LPS-stimulated human monocytes (ELISA). In kind it is cell-based. The settings on record: for release of TNF-α in LPS-stimulated monocytes: LPS 10 ng/ml, 24 h, rank order Denbinobin, CBD, CBG. The method, then:
The inhibitory effect of CARMA-CBG extract on TNF-α release was studied in human peripheral mononuclear phagocytic cells. Monocytes were isolated as in Example 6 and were treated with LPS (10 ng/ml), in the absence or presence of increasing concentrations of CARMA-CBG extract dissolved in DMSO for 24 h. The production of the TNFα was determined by ELISA. […] LPS-mediated activation in the absence of CARMA-CBG was arbitrarily set as 100% of TNF-α release (FIG. 6).
The production of TNF-α was determined by ELISA, on the supernatant of LPS-treated monocytes, as indicated above, in the absence or presence of either CBG, or CBD or Denbinobin, as indicated.
Monocytes from healthy human donors, were treated with LPS (10 ng/ml), in the absence or presence of either CBG, or CBD or Canflavin A or Denbinobin, combined as indicated. The production of TNF-α was determined by ELISA as indicated above.

A further data set has as its system IL-1β. Kind of data set: IL-1β release by LPS-stimulated human monocytes (ELISA). In kind it is cell-based. The note with it: for release of IL-1β (IL-1) in LPS-stimulated monocytes: LPS 10 ng/ml, 24 h, rank order Denbinobin, CBD, CBG. The method, then:
The inhibitory effect of CARMA-CBG extract on IL-1β release was studied in human peripheral mononuclear phagocytic cells. Monocytes from healthy human donors were prepared following a standardised protocol (Ficoll gradient preparation) using a completely endotoxin-free cultivation. Using 50 ml tubes, 25 ml Ficoll were loaded with 25 ml blood of buffy coats from healthy blood donors. The gradient was established by centrifugation at 1,800 r.p.m., 20° C. for 40 min by using slow acceleration and brakes. Peripheral blood mononuclear cells in the interphase were carefully removed and re-suspended in 50 ml pre-warmed phosphate buffered saline followed by centrifugation for 10 min at 1,600 r.p.m. and 20° C. The supernatant was discarded and the pellet washed in 50 ml PBS and centrifuged as described above. The pellet was then re-suspended in 50 ml RPMI-1640 low endotoxin-medium supplemented with 10% human serum (PAA). After counting the amount of cells in a particle counter, cells were seeded in 24-well plates for ELISA and incubated at 37° C./5% CO2. The medium and the non-adherent cells (lymphocytes) were removed and fresh RPMI-1640 medium containing 1% human serum was added. The monocytes were treated with LPS (10 ng/ml), in the absence or presence of increasing concentrations of CARMA-CBG extract dissolved in DMSO for 24 h. The production of the IL-1β was determined by ELISA. […] LPS-mediated activation in the absence of CARMA-CBG was arbitrarily set as 100% of IL-1β release (FIG. 5).
Monocytes were isolated from healthy human donors as indicated above, and then treated with LPS (10 ng/ml), in the absence or presence of either CBG, or CBD or Denbinobin, as indicated, dissolved in DMSO. The production of IL-1 was determined by ELISA, and mean values from two independent experiments are shown. Full LPS-mediated activation was arbitrarily set as 100%.
Monocytes from healthy human donors, were treated with LPS (10 ng/ml), in the absence or presence of either CBG, or CBD or Canflavin A or Denbinobin, combined as indicated. The production of IL-1 was determined by ELISA, and mean values from two independent experiments are shown.
(In general: An ELISA detects its analyte on a solid surface through an enzyme-linked reagent.)

The subject of the next data set is NF-kB. Kind of data set: cells. In kind it is cell-based. The note with it: for % INHIBITON OF TNF-α-INDUCED NF-κB ACTIVATION: compound alone.
Data set [1] concerns HCT-116 (Colon cancer) cells. Kind of data set: Calcein-AM cytotoxicity assay, HCT-116. The note with it: HCT-116, 24 h, compound alone. The procedure: (§1) The cytotoxic effect of the Cannabigerol (CBG) and Cannabidiol (CBD) alone or in combination was investigated by the Calcein-AM assay. Briefly, AGS, SW480 and HTC116 cells were cultivated at a density of 1.0×10^4 cells/ml in 96-well plates, 200 μl cell suspension per well and cultured in DMEM containing 10% fetal calf serum. Cells were treated with or without CBD, CBG or a combination of both compounds for 24 h, after which the wells were washed and the cells incubated with Calcein-AM (1 μM) (Molecular Probes) for 30 min. Then the fluorescence of viable cells was detected in a microtitre plate reader (TECAN Genius Pro). The intensity of fluorescence was inversely proportional to cell death induced by the compounds.

The subject of data set [2] is SW480 (Colon cancer) cells. Put plainly: Calcein-AM cytotoxicity assay, SW480. The settings on record: SW480, 24 h, compound alone. The procedure: as §1
In data set [3] the test system is AGS (gastric cancer) cells. Put plainly: Calcein-AM cytotoxicity assay, AGS. The note with it: 24 h, compound alone. The method, then: as §1
The target of data set [4] is T1, CB1 receptors in intestine submucose neurons (Rattus norvegicus, UniProt P20272).
T1 construct: host or cells: intestine submucose neurons (in vivo)
T1 sequence (P20272 whole entry): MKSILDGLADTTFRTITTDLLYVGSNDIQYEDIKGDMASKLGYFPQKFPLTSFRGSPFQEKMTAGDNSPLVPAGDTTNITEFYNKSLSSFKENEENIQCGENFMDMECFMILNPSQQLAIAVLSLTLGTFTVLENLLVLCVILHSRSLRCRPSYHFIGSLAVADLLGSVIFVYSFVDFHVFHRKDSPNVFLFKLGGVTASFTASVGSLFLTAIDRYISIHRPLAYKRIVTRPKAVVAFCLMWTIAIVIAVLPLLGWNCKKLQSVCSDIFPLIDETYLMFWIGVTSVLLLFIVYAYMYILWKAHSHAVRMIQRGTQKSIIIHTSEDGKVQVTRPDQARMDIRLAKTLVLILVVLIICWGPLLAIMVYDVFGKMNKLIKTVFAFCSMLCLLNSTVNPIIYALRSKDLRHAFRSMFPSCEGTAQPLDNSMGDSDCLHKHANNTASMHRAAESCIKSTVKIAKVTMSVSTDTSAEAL
The note with it: by activating CB1 receptors; cited from earlier work.

A further data set relates to intestinal inflammation. The settings on record: mice with induced IBD; cited from earlier work.
The next data set relates to prostaglandin E2. The settings on record: cited from earlier work.
The mark [5] stands for this setting: Homo sapiens, Jurkat, read-out: % INHIBITON OF TNF-α-INDUCED NF-κB ACTIVATION
Setting [6] is: Homo sapiens, Monocyte, compound alone, 10 μM, read-out: % INHIBITION OF LPS-INDUCED TNF-α-PRODUCTION
Setting [7] is: Homo sapiens, Monocyte, compound alone, 20 μM, read-out: % INHIBITION OF LPS-INDUCED TNF-α-PRODUCTION
The mark [8] stands for this setting: Homo sapiens, Monocyte, compound alone, 20 μM, read-out: % INHIBITION OF LPS-INDUCED IL-1 PRODUCTION

Like-named read-outs stand apart in the source and are kept apart here.

These results are taken from US20100222437A1, “C[…]-PSYCHOTROPIC CANNABINOIDS FOR THE TREATMENT OF INFLAMMATORY DISEASES” (priority 2007, published 2010).

As for `COC1=CC(=O)c2ccc3cc(OC)cc(O)c3c2C1=O` [Denbinobin], the anti-tumoral activity result with colon cancer cell lines and in the data set on leukaemia cell lines was “anti-tumoral activities” throughout. Also, the “HIV-1 replication in T cells” value in the data set with HIV-1 is listed as “can inhibit”. The inhibition at 1 µM in the data set with TNF-α (Homo sapiens, Monocyte, compound alone, 1 μM, read-out: % INHIBITION OF LPS-INDUCED TNF-α-PRODUCTION) was 32%; with IL-1β (Homo sapiens, Monocyte, compound alone, 1 μM, read-out: % INHIBITION OF LPS-INDUCED IL-1 PRODUCTION), 37%; in the data set with NF-kB (setting [5]), 44.9%. For the same compound, the inhibition at 2 µM with TNF-α (Homo sapiens, Monocyte, compound alone, 2 μM, read-out: % INHIBITION OF LPS-INDUCED TNF-α-PRODUCTION) is 64%; with NF-kB (setting [5]), 93.1%. In the data set on TNF-α, the “release of TNF-α in LPS-stimulated monocytes” value (“release of TNF-α” below) is listed as “significant concentration-dependent decrease”. Besides, the “release of IL-1β (IL-1) in LPS-stimulated monocytes” value (“release of IL-1β” below) in the data set with IL-1β is given as “significant concentration-dependent decrease”. In the data set with IL-1β (compound alone, 2 μM00), the “% INHIBITION OF LPS-INDUCED IL-1 PRODUCTION” value is 70.00%.
In the case of `C=C(C)[C@@H]1CCC(C)=C[C@H]1c1c(O)cc(CCCCC)cc1O` [CBD, Cannabidiol], the “cytotoxicity (cell survival, Calcein-AM)” value in data set [1], in data set [2] and in data set [3] was “induced cytotoxicity” in each case. Moreover, the “release of TNF-α” value in the data set with TNF-α was “significant concentration-dependent decrease”. The “% INHIBITION OF LPS-INDUCED TNF-α-PRODUCTION” value in the data set with TNF-α (compound alone, 10 μM) worked out at 33.30%; with TNF-α (compound alone, 20 μM), 83.60%. Also, the “release of IL-1β” value with IL-1β is on record as “significant concentration-dependent decrease”. The “% INHIBITION OF LPS-INDUCED IL-1 PRODUCTION” value is recorded as 70.10% in the data set with IL-1β (compound alone, 10 μM) and 84.00% in the data set with IL-1β (compound alone, 20 μM). The results for the “% INHIBITON OF TNF-α-INDUCED NF-κB ACTIVATION” value with NF-kB (10 μM) and with NF-kB (20 μM) were 14.43% and 59.67%, respectively.
For `CCCCCc1cc(O)c(C/C=C(\C)CCC=C(C)C)c(O)c1` [CBG, Cannabigerol], the “cytotoxicity (cell survival, Calcein-AM)” value in data set [1], in data set [2] and in data set [3] was “induced cytotoxicity” in each case. Moreover, the inhibition at 10 µM in the data set with TNF-α (setting [6]) is 24.9%; with IL-1β (Homo sapiens, Monocyte, read-out: % INHIBITION OF LPS-INDUCED IL-1 PRODUCTION), 9.4%; with NF-kB (setting [5]) it was 0%. Besides, the inhibition at 20 µM in the data set with TNF-α (setting [7]) stood at 59.8%; with IL-1β (setting [8]) it was 32.6%; with NF-kB (setting [5]), 18.3%. In the data set with TNF-α, the “release of TNF-α” value was “significant concentration-dependent decrease”. Moreover, the “release of IL-1β” value in the data set with IL-1β is on record as “significant concentration-dependent decrease”.
Turning to `CCCCCc1cc(O)c2c(c1)OC(C)(C)[C@@H]1CCC(C)=C[C@@H]21` [THC, Δ-9-Tetrahydrocannabinoid], the gastrointestinal motility result in [4] was “inhibits”. For the same compound, the intestinal inflammation entry in the data set on intestinal inflammation was “reduces”.
`COc1cc(-c2cc(=O)c3c(O)c(C/C=C(\C)CCC=C(C)C)c(O)cc3o2)ccc1O` [Canflavin A]: the “release of prostaglandin E2” value in the data set on prostaglandin E2 was “can inhibit”. The inhibition at 10 µM was determined as 0% in the data set on TNF-α (setting [6]); 0% in the data set on IL-1β (Homo sapiens, Monocyte, compound alone, 10 μM, read-out: % INHIBITION OF LPS-INDUCED IL-1 PRODUCTION); 16.6% in the data set with NF-kB (setting [5]). Further, the inhibition at 20 µM was 0% with TNF-α (setting [7]), 0% in the data set on IL-1β (setting [8]) and 38.8% in the data set with NF-kB (setting [5]).
